Assay results taken from patent US9085517B2, “Sulfonamide derivatives” (Pfizer Limited, priority 2011, dated 2015).
Where a name gives a salt, the structure may show the parent alone.

Target: T1, Nav1.7 (or SCN9A) channel (Homo sapiens, UniProt Q15858)
T1 construct: expressed in transfected cells
Assay: Nav1.7 (hSCN9A) block, whole-cell electrophysiology on the PatchXpress platform
Format: cell-based
Settings: estimated IC50 from single point electrophysiology data, HEK cells stably expressing hSCN9A, prepulse to V1/2, read-out: Nav1.7 EIC50
Description: The ability of the compounds of formula (I) to block the Nav1.7 (or SCN9A) channel were measured using the assay described below.
Human Embryonic Kidney (HEK) cells were transfected with an hSCN9A construct using lipofectamine reagent (Invitrogen), using standard techniques. Cells stably expressing the hSCN9A constructs were identified by their resistance to G-418 (400 μg/ml). Clones were screened for expression using the whole-cell voltage-clamp technique.
HEK cells stably transfected with hSCN9A were maintained in DMEM medium supplemented with 10% heat-inactivated fetal bovine serum and 400 μg/ml G-418 in an incubator at 37° C. with a humidified atmosphere of 10% CO2. For HTS, cells were harvested from flasks by trypsinization and replated in an appropriate multi-well plate (typically 96 or 384 wells/plate) such that confluence would be achieved within 24 hours of plating. For electrophysiological studies, cells were removed from the culture flask by brief trypsinization and re-plated at low density onto glass cover slips. Cells were typically used for electrophysiological experiments within 24 to 72 hours after plating.
Cover slips containing HEK cells expressing hSCN9A were placed in a bath on the stage of an inverted microscope and perfused (approximately 1 ml/minutes) with extracellular solution of the following composition: 138 mM NaCl, 2 mM CaCl2, 5.4 mM KCl, 1 mM MgCl2, 10 mM glucose, and 10 mM HEPES, pH 7.4, with NaOH. […] The osmolarity of the extracellular and intracellular solutions was 300 mOsm/kg and 295 mOsm/kg, respectively. All recordings were made at room temperature (22-24° C.) using AXOPATCH 200B amplifiers and PCLAMP software (Axon Instruments, Burlingame, Calif.).
hSCN9A currents in HEK cells were measured using the whole-cell configuration of the patch-clamp technique (Hamill et al., 1981). Uncompensated series resistance was typically 2 to 5 mega ohms and >85% series resistance compensation was routinely achieved. As a result, voltage errors were negligible and no correction was applied. Current records were acquired at 20 to 50 KHz and filtered at 5 to 10 KHz.
HEK cells stably transfected with hSCN9A were viewed under Hoffman contrast optics and placed in front of an array of flow pipes emitting either control or compound-containing extracellular solutions. All compounds were dissolved in dimethyl sulfoxide to make 10 mM stock solutions, which were then diluted into extracellular solution to attain the final concentrations desired. […] The voltage-dependence of inactivation was determined by applying a series of depolarizing prepulses (8 sec long in 10 mV increments) from a negative holding potential. The voltage was then immediately stepped to 0 mV to assess the magnitude of the sodium current. Currents elicited at 0 mV were plotted as a function of prepulse potential to allow estimation of the voltage at which 50% of the channels were inactivated (midpoint of inactivation or V1/2). Compounds were tested for their ability to inhibit hSCN9A sodium channels by activating the channel with a 20 msec voltage step to 0 mV following an 8 second conditioning prepulse to the empirically determined V1/2. Compound effect (% inhibition) was determined by difference in current amplitude before and after application of test compounds. For ease of comparison, “estimated IC-50” (EIC50) values were calculated from single point electrophysiology data by the following equation, (tested concentration, uM)×(100−% inhibition/% inhibition). Inhibition values <20% and >80% were excluded from the calculation.
Electrophysiological assays were conducted with PatchXpress 7000 hardware and associated software (Molecular Devices Corp). All assay buffers and solutions were identical to those used in conventional whole-cell voltage clamp experiments described above. hSCN9A cells were grown as above to 50%-80% confluency and harvested by trypsinization. […]

T1 sequence (Q15858 whole entry): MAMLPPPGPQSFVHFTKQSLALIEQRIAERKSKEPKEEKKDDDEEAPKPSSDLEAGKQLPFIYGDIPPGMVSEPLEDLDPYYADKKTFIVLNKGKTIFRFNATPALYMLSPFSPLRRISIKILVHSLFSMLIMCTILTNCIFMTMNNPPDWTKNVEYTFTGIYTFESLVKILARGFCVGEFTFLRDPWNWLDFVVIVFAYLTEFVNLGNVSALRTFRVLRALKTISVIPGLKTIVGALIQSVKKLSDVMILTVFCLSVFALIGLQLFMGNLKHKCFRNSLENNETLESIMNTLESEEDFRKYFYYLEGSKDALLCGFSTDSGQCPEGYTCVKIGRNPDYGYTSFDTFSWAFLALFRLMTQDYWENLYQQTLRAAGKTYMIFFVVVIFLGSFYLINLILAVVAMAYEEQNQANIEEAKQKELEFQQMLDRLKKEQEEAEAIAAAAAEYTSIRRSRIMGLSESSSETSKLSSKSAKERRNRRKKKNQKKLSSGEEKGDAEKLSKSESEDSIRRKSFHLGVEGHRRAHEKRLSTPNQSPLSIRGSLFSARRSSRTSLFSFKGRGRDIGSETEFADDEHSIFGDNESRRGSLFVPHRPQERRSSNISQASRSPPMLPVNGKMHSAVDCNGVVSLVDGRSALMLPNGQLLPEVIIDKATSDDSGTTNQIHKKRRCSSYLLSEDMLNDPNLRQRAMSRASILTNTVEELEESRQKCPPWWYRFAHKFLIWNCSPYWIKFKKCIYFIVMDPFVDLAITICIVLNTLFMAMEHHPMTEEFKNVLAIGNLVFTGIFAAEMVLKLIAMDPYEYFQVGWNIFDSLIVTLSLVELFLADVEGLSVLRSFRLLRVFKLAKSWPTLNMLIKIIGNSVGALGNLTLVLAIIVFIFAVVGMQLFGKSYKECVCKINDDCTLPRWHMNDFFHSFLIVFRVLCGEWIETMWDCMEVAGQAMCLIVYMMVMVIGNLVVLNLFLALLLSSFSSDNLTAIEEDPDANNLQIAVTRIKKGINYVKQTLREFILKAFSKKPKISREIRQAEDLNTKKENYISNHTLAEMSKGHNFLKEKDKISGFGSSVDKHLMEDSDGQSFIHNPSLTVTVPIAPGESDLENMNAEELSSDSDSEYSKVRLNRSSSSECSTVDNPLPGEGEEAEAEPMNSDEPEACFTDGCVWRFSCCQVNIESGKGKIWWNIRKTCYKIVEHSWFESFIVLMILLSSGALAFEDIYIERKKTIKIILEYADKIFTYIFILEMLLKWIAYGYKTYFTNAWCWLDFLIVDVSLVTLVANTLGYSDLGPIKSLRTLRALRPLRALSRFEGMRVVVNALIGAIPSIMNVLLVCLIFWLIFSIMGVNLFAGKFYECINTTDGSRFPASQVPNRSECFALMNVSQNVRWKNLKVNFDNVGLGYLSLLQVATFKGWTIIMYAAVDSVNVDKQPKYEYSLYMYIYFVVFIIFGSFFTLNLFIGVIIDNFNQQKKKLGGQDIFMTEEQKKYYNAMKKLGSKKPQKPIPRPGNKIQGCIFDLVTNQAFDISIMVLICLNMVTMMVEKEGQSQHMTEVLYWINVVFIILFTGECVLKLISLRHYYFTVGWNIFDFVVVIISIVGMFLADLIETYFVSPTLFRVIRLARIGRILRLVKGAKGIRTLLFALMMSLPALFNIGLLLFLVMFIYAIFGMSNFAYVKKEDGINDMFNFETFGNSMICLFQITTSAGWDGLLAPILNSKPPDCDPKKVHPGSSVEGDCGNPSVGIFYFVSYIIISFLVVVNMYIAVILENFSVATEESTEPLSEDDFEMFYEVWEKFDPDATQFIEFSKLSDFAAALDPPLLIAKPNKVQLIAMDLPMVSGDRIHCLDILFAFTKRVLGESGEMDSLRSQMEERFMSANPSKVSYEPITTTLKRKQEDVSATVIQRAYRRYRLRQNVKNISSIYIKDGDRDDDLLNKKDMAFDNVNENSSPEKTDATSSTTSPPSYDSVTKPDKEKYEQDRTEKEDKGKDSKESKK

Row | Structure (SMILES) | IC50 [nM]
1 | CN(C)S(=O)(=O)NC(=O)c1ccc(OCc2ccc(Cl)c(Cl)c2)cc1 [Example 12, 4-[(3,4-dichlorobenzyl)oxy]-N-[(dimethylamino)sulfonyl]benzamide] | 2300
2 | CN(C)S(=O)(=O)NC(=O)c1cc(F)c(COc2ccc(Cl)c(Cl)c2)cc1F [Example 10, 4-[(3,4-dichlorophenoxy)methyl]-N-[(dimethylamino)sulfonyl]-2,5-difluorobenzamide] | 350
3 | O=C(NS(=O)(=O)N1CC(F)(F)C1)c1cc(Cl)c(COc2cnc(C3CC3)c(Cl)c2)cc1F [Example 16, 5-chloro-4-{[(5-chloro-6-cyclopropylpyridin-3-yl)oxy]methyl}-N-[(3,3-difluoroazetidin-1-yl)sulfonyl]-2-fluorobenzamide] | 270
4 | CN(C)S(=O)(=O)NC(=O)c1cc(F)c(COc2ccc(Cl)c(F)c2)cc1F [Example 8, 4-[(4-chloro-3-fluorophenoxy)methyl]-N-[(dimethylamino)sulfonyl]-2,5-difluorobenzamide] | 850
5 | CC(C)Oc1ncc(OCc2cc(F)c(C(=O)NS(=O)(=O)N3CCC3)cc2F)cc1Cl [Example 13, N-(azetidin-1-ylsulfonyl)-4-{[(5-chloro-6-isopropoxypyridin-3-yl)oxy]methyl}-2,5-difluorobenzamide] | 150
6 | CC(C)Oc1ncc(COc2cc(F)c(C(=O)NS(=O)(=O)N(C)C)cc2F)cc1Cl [Example 7, 4-[(5-chloro-6-isopropoxypyridin-3-yl)methoxy]-N-[(dimethylamino)sulfonyl]-2,5-difluorobenzamide] | 8300
7 | CN(C)S(=O)(=O)NC(=O)c1ccc(COc2ccc(Cl)c(C(F)(F)F)c2)cc1 [Example 4, 4-{[4-chloro-3-(trifluoromethyl)phenoxy]methyl}-N-[(dimethylamino)sulfonyl]benzamide] | 1500
8 | CN(C)S(=O)(=O)NC(=O)c1ccc(COc2ccc(C(F)(F)F)c(Cl)c2)cc1 [Example 5, 4-{[3-chloro-4-(trifluoromethyl)phenoxy]methyl}-N-[(dimethylamino)sulfonyl]benzamide] | 920
9 | CN(C)S(=O)(=O)NC(=O)c1cc(F)c(COc2ccc(Cl)c(C(F)(F)F)c2)cc1F [Example 6, 4-{[4-chloro-3-(trifluoromethyl)phenoxy]methyl}-N-[(dimethylamino)sulfonyl]-2,5-difluorobenzamide] | 200
10 | CN(C)S(=O)(=O)NC(=O)c1cc(Cl)c(COc2cnc(C3CC3)c(Cl)c2)cc1F [Example 14, 5-chloro-4-{[(5-chloro-6-cyclopropylpyridin-3-yl)oxyl]methyl}-N-[(dimethylamino)sulfonyl]-2-fluorobenzamide diethylamine salt] | 420
11 | CN(C)S(=O)(=O)NC(=O)c1cc(F)c(COc2ccc(C#N)c(Cl)c2)cc1F [Example 9, 4-[(3-chloro-4-cyanophenoxy)methyl]-N-[(dimethylamino)sulfonyl]-2,5-difluorobenzamide] | > 3000
12 | CN(C)S(=O)(=O)NC(=O)c1cc(F)c(COc2ccc(F)c(Cl)c2)cc1F [Example 11, 4-[(3-chloro-4-fluorophenoxy)methyl]-N-[(dimethylamino)sulfonyl]-2,5-difluorobenzamide] | 580
13 | CN(C)S(=O)(=O)NC(=O)c1cc(F)c(OCc2ccc(Cl)c(Cl)c2)cc1F [Example 3, 4-[(3,4-Dichlorobenzyl)oxy]-N-[(dimethylamino)sulfonyl]-2,5-difluorobenzamide] | 1300
14 | CC(C)Oc1ncc(OCc2cc(F)c(C(=O)NS(=O)(=O)N(C)C)cc2F)cc1Cl [Example 1, 4-{[(5-Chloro-6-isopropoxypyridin-3-yl)oxy]methyl}-N-[(dimethylamino)sulfonyl]-2,5-difluorobenzamide] | 240
15 | CN(C)S(=O)(=O)NC(=O)c1cc(F)c(COc2ccc(C(F)(F)F)c(Cl)c2)cc1F [Example 2, 4-{[3-Chloro-4-(trifluoromethyl)phenoxy]methyl}-N-[(dimethylamino)sulfonyl]-2,5-difluorobenzamide] | 110
16 | O=C(NS(=O)(=O)N1CCC1)c1cc(Cl)c(COc2cnc(C3CC3)c(Cl)c2)cc1F [Example 15, N-(azetidin-1-ylsulfonyl)-5-chloro-4-{[(5-chloro-6-cyclopropylpyridin-3-yl)oxy]methyl}-2-fluorobenzamide] | 90
